Source: patent US9663473B2 (Actelion Pharmaceuticals Ltd, priority 2013, dated 2017)
Counter-ions that a name gives are not always drawn.

Molecular target: T1, recombinant human ALX receptor (Homo sapiens, UniProt P25090)
T1 construct: expressed in transfected cells; host or cells: HEK293 (HEK293-hALXR-Gα16)
T1 sequence (P25090 1-351): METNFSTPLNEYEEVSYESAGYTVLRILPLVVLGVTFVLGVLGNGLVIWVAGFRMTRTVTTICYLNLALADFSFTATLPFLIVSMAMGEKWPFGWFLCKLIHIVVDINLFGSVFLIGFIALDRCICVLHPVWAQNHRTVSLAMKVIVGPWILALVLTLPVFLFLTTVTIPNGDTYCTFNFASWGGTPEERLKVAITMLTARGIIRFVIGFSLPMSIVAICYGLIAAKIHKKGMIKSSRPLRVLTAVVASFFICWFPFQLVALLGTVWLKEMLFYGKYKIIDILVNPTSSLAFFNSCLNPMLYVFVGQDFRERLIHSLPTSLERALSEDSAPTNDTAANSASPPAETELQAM
Assay: Intracellular calcium measurements (FLIPR), ALX receptor agonistic activity
Assay type: cell-based
Conditions: HEK293-hALXR-Gα16 cells, Fluo-4 calcium signal, normalized to WKYMVm 10 nM
Method in brief: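 Agonist-induced calcium flux was read by FLIPR (488/540 nm) as baseline-subtracted peak emission, expressed relative to WKYMVm at 10 nM final. Cells used: HEK293-hALXR-Gα16, dye-loaded 60 min at 37° C. with 1 μM Fluo-4 AM before compound dose-response addition.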

EC50 [nM]	SMILES
277	COC(=O)c1ccc(C2(NC(=O)N[C@H](Cc3ccc(OC)cc3)c3nc4ccccc4[nH]3)CC2)cc1 [Example 342, (R)-Methyl 4-(1-(3-(1-(1H-benzo[d]imidazol-2-yl)-2-(4-methoxyphenyl)ethyl)ureido)cyclopropyl)benzoate]
40	COc1ccc(C[C@@H](NC(=O)NC(CCO)c2ccccc2)c2nc3ccccc3[nH]2)cc1 (stereo partly drawn) [Example 343, 1-((R)-1-(1H-Benzo[d]imidazol-2-yl)-2-(4-methoxyphenyl)ethyl)-3-(3-hydroxy-1-phenylpropyl)urea]
167	CC[C@@H](NC(=O)N[C@H](Cc1ccc(OC)cc1)c1nc2ccccc2[nH]1)c1ccccc1 [Example 344, 1-((R)-1-(1H-Benzo[d]imidazol-2-yl)-2-(4-methoxyphenyl)ethyl)-3-((R)-1-phenylpropyl)urea]
127	CC[C@H](NC(=O)N[C@H](Cc1ccc(OC)cc1)c1nc2ccccc2[nH]1)c1ccccc1 [Example 345, 1-((R)-1-(1H-Benzo[d]imidazol-2-yl)-2-(4-methoxyphenyl)ethyl)-3-((S)-1-phenylpropyl)urea]
56	COc1ccc(C[C@@H](NC(=O)NC2CCCc3c(OC)cccc32)c2nc3ccccc3[nH]2)cc1 (stereo partly drawn) [Example 346, 1-((R)-1-(1H-Benzo[d]imidazol-2-yl)-2-(4-methoxyphenyl)ethyl)-3-(5-methoxy-1,2,3,4-tetrahydronaphthalen-1-yl)urea]
365	COc1ccc(C[C@@H](NC(=O)N[C@@H](C)C2CCCCC2)c2nc3ccccc3[nH]2)cc1 [Example 347, 1-((R)-1-(1H-Benzo[d]imidazol-2-yl)-2-(4-methoxyphenyl)ethyl)-3-((S)-1-cyclohexylethyl)urea]
26	COc1ccc(C[C@@H](NC(=O)NC2CCc3cc(OC)c(OC)cc32)c2nc3ccccc3[nH]2)cc1 (stereo partly drawn) [Example 348, 1-((R)-1-(1H-Benzo[d]imidazol-2-yl)-2-(4-methoxyphenyl)ethyl)-3-(5,6-dimethoxy-2,3-dihydro-1H-inden-1-yl)urea]
287	COc1ccc(C[C@@H](NC(=O)N[C@H](C)c2ccccc2)c2nc3ccccc3[nH]2)cc1 [Example 349, 1-((R)-1-(1H-Benzo[d]imidazol-2-yl)-2-(4-methoxyphenyl)ethyl)-3-((R)-1-phenylethyl)urea]
288	COc1ccc(C[C@@H](NC(=O)NC(C)(C)c2ccccc2)c2nc3ccccc3[nH]2)cc1 [Example 350, (R)-1-(1-(1H-Benzo[d]imidazol-2-yl)-2-(4-methoxyphenyl)ethyl)-3-(2-phenylpropan-2-yl)urea]
350	COc1ccc(C[C@@H](NC(=O)NC2(c3ccccc3)CC2)c2nc3ccccc3[nH]2)cc1 [Example 351, (R)-1-(1-(1H-Benzo[d]imidazol-2-yl)-2-(4-methoxyphenyl)ethyl)-3-(1-phenylcyclopropyl)urea]
372	COc1ccc(C[C@@H](NC(=O)NC(C)(C)c2ccc(Cl)cc2)c2nc3ccccc3[nH]2)cc1 [Example 352, (R)-1-(1-(1H-Benzo[d]imidazol-2-yl)-2-(4-methoxyphenyl)ethyl)-3-(2-(4-chlorophenyl)propan-2-yl)urea]
461	COc1ccc(C[C@@H](NC(=O)NC(C)(C)c2cccc(C)c2)c2nc3ccccc3[nH]2)cc1 [Example 353, (R)-1-(1-(1H-Benzo[d]imidazol-2-yl)-2-(4-methoxyphenyl)ethyl)-3-(2-(m-tolyl)propan-2-yl)urea]
144	COc1ccc(C[C@@H](NC(=O)NC2(c3cccc(C)c3)CC2)c2nc3ccccc3[nH]2)cc1 [Example 354, (R)-1-(1-(1H-Benzo[d]imidazol-2-yl)-2-(4-methoxyphenyl)ethyl)-3-(1-(m-tolyl)cyclopropyl)urea]
157	COc1ccc(C[C@@H](NC(=O)NC2(c3ccc(Cl)cc3)CC2)c2nc3ccccc3[nH]2)cc1 [Example 355, (R)-1-(1-(1H-Benzo[d]imidazol-2-yl)-2-(4-methoxyphenyl)ethyl)-3-(1-(4-chlorophenyl)cyclopropyl)urea]
176	COc1ccc(C[C@@H](NC(=O)NC2(c3ccc(C(F)(F)F)cc3)CC2)c2nc3ccccc3[nH]2)cc1 [Example 358, (R)-1-(1-(1H-Benzo[d]imidazol-2-yl)-2-(4-methoxyphenyl)ethyl)-3-(1-(4-(trifluoromethyl)phenyl)cyclopropyl)urea]
561	COc1ccc(CC(NC(=O)N[C@@H](C)c2cccc(Cl)c2)c2nc3ccccc3[nH]2)cc1 (stereo partly drawn) [Example 360, 1-(1-(1H-Benzo[d]imidazol-2-yl)-2-(4-methoxyphenyl)ethyl)-3-((S)-1-(3-chlorophenyl)ethyl)urea]
10	O=C(N[C@H](Cc1ccc(CF)cc1)c1nc2ccccc2[nH]1)N[C@H]1CC[C@H](O)CC1 [Example 364, 1-((R)-1-(1H-Benzo[d]imidazol-2-yl)-2-(4-(fluoromethyl)phenyl)ethyl)-3-(trans-4-hydroxycyclohexyl)urea]

EC50 [nM]	SMILES
1630	COc1ccc(CC(NC(=O)NCc2cc(C(C)C)on2)c2nc3ccccc3[nH]2)cc1 (stereo not drawn) [Example 377, 1-(1-(1H-Benzo[d]imidazol-2-yl)-2-(4-methoxyphenyl)ethyl)-3-((5-isopropylisoxazol-3-yl)methyl)urea]
1470	COc1ccc(C[C@@H](NC(=O)N[C@H](CC(=O)OC(C)(C)C)c2ccccc2)c2nc3ccccc3[nH]2)cc1 [Example 378, (R)-tert-Butyl 3-(3-((R)-1-(1H-benzo[d]imidazol-2-yl)-2-(4-methoxyphenyl)ethyl)ureido)-3-phenylpropanoate]
1090	COc1ccc(C[C@@H](NC(=O)Nc2ccon2)c2nc3ccccc3[nH]2)cc1 [Example 379, (R)-1-(1-(1H-Benzo[d]imidazol-2-yl)-2-(4-methoxyphenyl)ethyl)-3-(isoxazol-3-yl)urea hydrochloride]
1090	COc1ccc(CC(NC(=O)NCc2cc(C3CC3)on2)c2nc3ccccc3[nH]2)cc1 (stereo not drawn) [Example 380, 1-(1-(1H-Benzo[d]imidazol-2-yl)-2-(4-methoxyphenyl)ethyl)-3-((5-cyclopropylisoxazol-3-yl)methyl)urea]
1170	COc1ccc(C[C@@H](NC(=O)NC(C)c2ccc(OC(F)(F)F)cc2)c2nc3ccccc3[nH]2)cc1 (stereo partly drawn) [Example 381, 1-((R)-1-(1H-Benzo[d]imidazol-2-yl)-2-(4-methoxyphenyl)ethyl)-3-(1-(4-(trifluoromethoxy)phenyl)ethyl)urea]
1900	COc1ccc(C[C@@H](NC(=O)N2CC3CC2CN3C(=O)OC(C)(C)C)c2nc3ccccc3[nH]2)cc1 (stereo partly drawn) [Example 382, tert-Butyl 5-(((R)-1-(1H-benzo[d]imidazol-2-yl)-2-(4-methoxyphenyl)ethyl)carbamoyl)-2,5-diazabicyclo[2.2.1]heptane-2-carboxylate]
1780	COc1ccc(C[C@@H](NC(=O)N[C@H](C)C2CCCCC2)c2nc3ccccc3[nH]2)cc1 [Example 383, 1-((R)-1-(1H-Benzo[d]imidazol-2-yl)-2-(4-methoxyphenyl)ethyl)-3-((R)-1-cyclohexylethyl)urea]
1220	COc1ccc(CC(NC(=O)NCc2ccon2)c2nc3ccccc3[nH]2)cc1 (stereo not drawn) [Example 384, 1-(1-(1H-Benzo[d]imidazol-2-yl)-2-(4-methoxyphenyl)ethyl)-3-(isoxazol-3-ylmethyl)urea]
1030	COc1ccc(CC(NC(=O)NCc2cccnc2OC)c2nc3ccccc3[nH]2)cc1 (stereo not drawn) [Example 385, 1-(1-(1H-Benzo[d]imidazol-2-yl)-2-(4-methoxyphenyl)ethyl)-3-((2-methoxypyridin-3-yl)methyl)urea]
1240	COc1ccc(C[C@@H](NC(=O)NC(C)c2ccncn2)c2nc3ccccc3[nH]2)cc1 (stereo partly drawn) [Example 386, 1-((R)-1-(1H-Benzo[d]imidazol-2-yl)-2-(4-methoxyphenyl)ethyl)-3-(1-(pyrimidin-4-yl)ethyl)urea]
1370	COc1ccc(CNC(=O)N[C@H](Cc2ccc(OC)cc2)c2nc3ccccc3[nH]2)cc1 [Example 387, (R)-1-(1-(1H-Benzo[d]imidazol-2-yl)-2-(4-methoxyphenyl)ethyl)-3-(4-methoxybenzyl)urea]
1070	COc1ccc(CC(NC(=O)NCCCN(C)C)c2nc3ccccc3[nH]2)cc1 (stereo not drawn) [Example 388, 1-(1-(1H-Benzo[d]imidazol-2-yl)-2-(4-methoxyphenyl)ethyl)-3-(3-(dimethylamino)propyl)urea]
1170	COc1ccc(C[C@@H](NC(=O)NC2(c3ccccc3Cl)CC2)c2nc3ccccc3[nH]2)cc1 [Example 389, (R)-1-(1-(1H-Benzo[d]imidazol-2-yl)-2-(4-methoxyphenyl)ethyl)-3-(1-(2-chlorophenyl)cyclopropyl)urea]
2680	COc1ccc(C[C@@H](NC(=O)NCCN2CCN(C(C)=O)CC2)c2nc3ccccc3[nH]2)cc1 [Example 390, (R)-1-(1-(1H-Benzo[d]imidazol-2-yl)-2-(4-methoxyphenyl)ethyl)-3-(2-(4-acetylpiperazin-1-yl)ethyl)urea]
2720	COc1ccc(CC(NC(=O)NCCN2CCCC2)c2nc3ccccc3[nH]2)cc1 (stereo not drawn) [Example 391, 1-(1-(1H-Benzo[d]imidazol-2-yl)-2-(4-methoxyphenyl)ethyl)-3-(2-(pyrrolidin-1-yl)ethyl)urea]
2410	COc1ccc(C[C@@H](NC(=O)NCc2ccccc2)c2nc3ccccc3[nH]2)cc1 [Example 392, (R)-1-(1-(1H-Benzo[d]imidazol-2-yl)-2-(4-methoxyphenyl)ethyl)-3-benzylurea]
